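How tested: cells in 96-well plates exposed to compound for 48 hours at five concentrations. TGI marks complete inhibition of growth.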
Key:
Assay in all cases: inhibition of tumour cell growth, NCI panel, 48 h
[1] = tested on: 786-0 renal
[2] = tested on: A498 renal
[3] = tested on: A549 NSCLC
[4] = tested on: ACHN renal
[5] = tested on: BT-549 breast
[6] = tested on: CAKI-1 renal
[7] = tested on: CCRF-CEM leukemia
[8] = tested on: COLO 205 colon
[9] = tested on: DU-145 prostate
[10] = tested on: HCC-2998 colon
[11] = tested on: HCT-116 colon
[12] = tested on: HCT-15 colon
[13] = tested on: HL-60(TB) leukemia
[14] = tested on: HOP-92 NSCLC
[15] = tested on: HT29 colon
[16] = tested on: IGROV1 ovarian
[17] = tested on: K-562 leukemia
[18] = tested on: KM12 colon
[19] = tested on: M14 melanoma
[20] = tested on: MALME-3M melanoma
[21] = tested on: MCF7 breast
[22] = tested on: MDA-MB-231 breast
[23] = tested on: MDA-MB-435
[24] = tested on: MDA-N
[25] = tested on: MOLT-4 leukemia
[26] = tested on: NCI-H226 lung
[27] = tested on: NCI-H23 lung
[28] = tested on: NCI-H460 lung
[29] = tested on: NCI-H522 lung
[30] = tested on: NCI/ADR-RES ovarian
[31] = tested on: OVCAR-3 ovarian
[32] = tested on: OVCAR-4 ovarian
[33] = tested on: OVCAR-5 ovarian
[34] = tested on: OVCAR-8 ovarian
[35] = tested on: PC-3 prostate
[36] = tested on: RPMI-8226 leukemia
[37] = tested on: RXF 393 renal
[38] = tested on: SF-268 CNS
[39] = tested on: SF-295 CNS
[40] = tested on: SF-539 CNS
[41] = tested on: SK-MEL-2 melanoma
[42] = tested on: SK-MEL-28 melanoma
[43] = tested on: SK-MEL-5 melanoma
[44] = tested on: SN12C renal
[45] = tested on: SNB-19 CNS
[46] = tested on: SNB-75 CNS
[47] = tested on: SW-620 colon
[48] = tested on: T-47D breast
[49] = tested on: TK-10 renal
[50] = tested on: U251 CNS
[51] = tested on: UACC-257 melanoma
[52] = tested on: UACC-62 melanoma
[53] = tested on: UO-31 renal
[54] = tested on: EKVX NSCLC
[55] = tested on: HOP-62 NSCLC
[56] = tested on: HS 578T breast
[57] = tested on: LOX IMVI melanoma
[58] = tested on: SK-OV-3 ovarian
[59] = tested on: SR leukemia

## N=C(N)c1ccc2oc3ccc(C(=N)N)cc3c(=O)c2c1
[1]
  TGI: > 100 µM
[2]
  TGI: > 100 µM
[3]
  TGI: > 100 µM
[4]
  TGI: > 100 µM
[5]
  TGI: > 100 µM
[6]
  TGI: > 100 µM
[7]
  TGI: > 100 µM
[8]
  TGI: > 100 µM
[9]
  TGI: > 100 µM
[10]
  TGI: > 100 µM
[11]
  TGI: > 100 µM
[12]
  TGI: > 100 µM
[13]
  TGI: > 100 µM
[14]
  TGI: > 100 µM
[15]
  TGI: > 100 µM
[16]
  TGI: > 100 µM
[17]
  TGI: > 100 µM
[18]
  TGI: > 100 µM
[19]
  TGI: > 100 µM
[20]
  TGI: > 100 µM
[21]
  TGI: > 100 µM
[22]
  TGI: > 100 µM
[23]
  TGI: > 100 µM
[24]
  TGI: > 100 µM
[25]
  TGI: > 100 µM
[26]
  TGI: > 100 µM
[27]
  TGI: > 100 µM
[28]
  TGI: > 100 µM
[29]
  TGI: > 100 µM
[30]
  TGI: > 100 µM
[31]
  TGI: > 100 µM
[32]
  TGI: > 100 µM
[33]
  TGI: > 100 µM
[34]
  TGI: > 100 µM
[35]
  TGI: > 100 µM
[36]
  TGI: > 100 µM
[37]
  TGI: > 100 µM
[38]
  TGI: > 100 µM
[39]
  TGI: > 100 µM
[40]
  TGI: > 100 µM
[41]
  TGI: > 100 µM
[42]
  TGI: > 100 µM
[43]
  TGI: > 100 µM
[44]
  TGI: > 100 µM
[45]
  TGI: > 100 µM
[46]
  TGI: > 100 µM
[47]
  TGI: > 100 µM
[48]
  TGI: > 100 µM
[49]
  TGI: > 100 µM
[50]
  TGI: > 100 µM
[51]
  TGI: > 100 µM
[52]
  TGI: > 100 µM
[53]
  TGI: > 100 µM

## CCOP1(=O)CC(C)=C(Cl)C(OC)C1 (configuration not stated)
[1]
  TGI: > 100 µM
[2]
  TGI: > 100 µM
[3]
  TGI: > 100 µM
[4]
  TGI: > 100 µM
[5]
  TGI: > 100 µM
[6]
  TGI: > 100 µM
[7]
  TGI: > 100 µM
[8]
  TGI: > 100 µM
[9]
  TGI: > 100 µM
[54]
  TGI: > 100 µM
[10]
  TGI: > 100 µM
[11]
  TGI: > 100 µM
[12]
  TGI: > 100 µM
[13]
  TGI: > 100 µM
[55]
  TGI: > 100 µM
[14]
  TGI: > 100 µM
[56]
  TGI: > 100 µM
[15]
  TGI: > 100 µM
[16]
  TGI: > 100 µM
[17]
  TGI: 77.3 µM
[18]
  TGI: > 100 µM
[57]
  TGI: > 100 µM
[19]
  TGI: > 100 µM
[20]
  TGI: > 100 µM
[21]
  TGI: > 100 µM
[22]
  TGI: > 100 µM
[23]
  TGI: > 100 µM
[24]
  TGI: > 100 µM
[25]
  TGI: > 100 µM
[26]
  TGI: > 100 µM
[27]
  TGI: > 100 µM
[28]
  TGI: > 100 µM
[29]
  TGI: > 100 µM
[30]
  TGI: > 100 µM
[31]
  TGI: > 100 µM
[32]
  TGI: > 100 µM
[33]
  TGI: > 100 µM
[34]
  TGI: > 100 µM
[35]
  TGI: > 100 µM
[36]
  TGI: > 100 µM
[37]
  TGI: > 100 µM
[38]
  TGI: > 100 µM
[39]
  TGI: > 100 µM
[40]
  TGI: > 100 µM
[41]
  TGI: > 100 µM
[42]
  TGI: > 100 µM
[43]
  TGI: > 100 µM
[58]
  TGI: > 100 µM
[44]
  TGI: > 100 µM
[45]
  TGI: > 100 µM
[46]
  TGI: > 100 µM
[59]
  TGI: > 100 µM
[47]
  TGI: > 100 µM
[49]
  TGI: > 100 µM
[50]
  TGI: > 100 µM
[51]
  TGI: > 100 µM
[52]
  TGI: > 100 µM

## CN(C(=O)Cc1ccccc1)n1cn[n+](CC(=O)OC(C)(C)C)c1
[1]
  TGI: > 10 µM
[2]
  TGI: > 10 µM
[3]
  TGI: > 10 µM
[4]
  TGI: > 10 µM
[5]
  TGI: > 10 µM
[6]
  TGI: > 10 µM
[7]
  TGI: > 10 µM
[8]
  TGI: > 10 µM
[9]
  TGI: > 10 µM
[54]
  TGI: > 10 µM
[10]
  TGI: > 10 µM
[11]
  TGI: > 10 µM
[12]
  TGI: > 10 µM
[55]
  TGI: > 10 µM
[14]
  TGI: > 10 µM
[56]
  TGI: > 10 µM
[15]
  TGI: > 10 µM
[16]
  TGI: > 10 µM
[17]
  TGI: > 10 µM
[18]
  TGI: > 10 µM
[57]
  TGI: > 10 µM
[19]
  TGI: > 10 µM
[20]
  TGI: > 10 µM
[21]
  TGI: > 10 µM
[22]
  TGI: > 10 µM
[23]
  TGI: > 10 µM
[24]
  TGI: > 10 µM
[25]
  TGI: > 10 µM
[26]
  TGI: > 10 µM
[27]
  TGI: > 10 µM
[28]
  TGI: > 10 µM
[29]
  TGI: > 10 µM
[30]
  TGI: > 10 µM
[31]
  TGI: > 10 µM
[32]
  TGI: > 10 µM
[33]
  TGI: > 10 µM
[34]
  TGI: > 10 µM
[35]
  TGI: > 10 µM
[36]
  TGI: > 10 µM
[38]
  TGI: > 10 µM
[39]
  TGI: > 10 µM
[40]
  TGI: > 10 µM
[42]
  TGI: > 10 µM
[43]
  TGI: > 10 µM
[58]
  TGI: > 10 µM
[44]
  TGI: > 10 µM
[45]
  TGI: > 10 µM
[59]
  TGI: > 10 µM
[47]
  TGI: > 10 µM
[48]
  TGI: > 10 µM
[49]
  TGI: > 10 µM
[50]
  TGI: > 10 µM
[51]
  TGI: > 10 µM
[52]
  TGI: > 10 µM
[53]
  TGI: > 10 µM

## COCN1C(=O)[C@@H]2CCCN2C(=O)c2ccc(N)cc21
[1]
  TGI: > 100 µM
[2]
  TGI: > 100 µM
[3]
  TGI: > 100 µM
[4]
  TGI: > 100 µM
[5]
  TGI: > 100 µM
[6]
  TGI: > 100 µM
[7]
  TGI: > 100 µM
[8]
  TGI: > 100 µM
[9]
  TGI: > 100 µM
[54]
  TGI: > 100 µM
[10]
  TGI: > 100 µM
[11]
  TGI: > 100 µM
[12]
  TGI: > 100 µM
[13]
  TGI: > 100 µM
[55]
  TGI: > 100 µM
[14]
  TGI: > 100 µM
[56]
  TGI: > 100 µM
[15]
  TGI: > 100 µM
[16]
  TGI: > 100 µM
[17]
  TGI: > 100 µM
[18]
  TGI: > 100 µM
[57]
  TGI: > 100 µM
[19]
  TGI: > 100 µM
[21]
  TGI: > 100 µM
[22]
  TGI: > 100 µM
[23]
  TGI: > 100 µM
[24]
  TGI: > 100 µM
[25]
  TGI: > 100 µM
[26]
  TGI: > 100 µM
[27]
  TGI: > 100 µM
[28]
  TGI: > 100 µM
[29]
  TGI: > 100 µM
[30]
  TGI: > 100 µM
[31]
  TGI: > 100 µM
[32]
  TGI: > 100 µM
[33]
  TGI: > 100 µM
[34]
  TGI: > 100 µM
[35]
  TGI: > 100 µM
[36]
  TGI: > 100 µM
[37]
  TGI: > 100 µM
[38]
  TGI: > 100 µM
[39]
  TGI: > 100 µM
[40]
  TGI: > 100 µM
[41]
  TGI: > 100 µM
[42]
  TGI: > 100 µM
[43]
  TGI: > 100 µM
[58]
  TGI: > 100 µM
[44]
  TGI: > 100 µM
[45]
  TGI: > 100 µM
[46]
  TGI: > 100 µM
[59]
  TGI: > 100 µM
[47]
  TGI: > 100 µM
[49]
  TGI: > 100 µM
[50]
  TGI: > 100 µM
[51]
  TGI: > 100 µM
[52]
  TGI: > 100 µM
[53]
  TGI: > 100 µM

Reference: PubChem BioAssay (NCI)
